# Earlier results, collected in patent publication US20220273570A1, “Self-Microemulsifying Multi-Deliverable Systems” (Quicksilver Scientific, Inc., priority 2019, published 2022).
# Like-named read-outs stand apart in the source and are kept apart here.
# How the values were obtained:
# [1] = up to
# [2] = test system: human hepatoma cell line (HepG2)
# [3] = rats, oral
# [4] = oral; extensively metabolized into glucuronide conjugate
compound,measurement,setting,value
C[C@]12CC[C@H](O)CC1=CC[C@@H]1[C@@H]2CC[C@]2(C)C(=O)CC[C@@H]12 [DHEA],solubility in MCT oil,[1]; MCT oil,approximately 10 mg/mL
same,solubility in ethanol,[1]; ethanol,approximately 150 mg/mL
COc1cc(/C=C/C(=O)CC(=O)/C=C/c2ccc(O[C@@H]3O[C@H](C(=O)O)[C@@H](O)[C@H](O)[C@H]3O)c(OC)c2)ccc1O [curcumin-glucuronide],effects on gene expression compared with free curcumin,[2],weaker
COc1cc(/C=C/C(=O)CC(=O)/C=C/c2ccc(O)c(OC)c2)ccc1O [curcumin],bioavailability of orally administered solid curcumin powder,[3],1%
O=c1c(O)c(-c2ccc(O)c(O)c2)oc2cc(O)cc(O)c12 [quercetin],elimination half-life,after oral ingestion of quercetin containing foods or supplements,1 to 2 h
same,bioavailability,"humans, low and highly variable",0-50%
"Oc1ccc(/C=C/c2cc(O)cc(O)c2)cc1 [resveratrol, 3,5,4′-trihydroxy-trans-stilbene]",bioavailability,[4],about 0.5%
